From patent publication US20120196899A1, “METHODS AND PRODUCTS FOR TREATING INFLAMMATION” (Rock Creek Pharmaceuticals, Inc., priority 2010, published 2012)
Where “and” joins values, the source holds several entries; their conditions need not be identical. Equal values may be shown once. Entries after “also recorded” stand apart in the source; their conditions may differ.

How the values were obtained:
Urinalysis, day 15 = format: in vivo, Sprague-Dawley rats
Description: (§1) On day 15, urine was collected on all surviving animals for urinalysis. The animals were euthanized and bled via cardiac puncture. Blood was collected for hematology, clinical chemistry, and coagulation analysis. Tissues were collected, weighed, and stored in 10% neutral-buffered formalin for possible future analysis.
There were no notable differences between the active treatment groups and controls and the observations are all consistent with those expected for this species.

[1] = Necropsy observations and organ weights, day 15; format: in vivo, Sprague-Dawley rats; conditions: for Tissue Collection Weights: Brain / Tissue Collection Weights: Heart / Tissue Collection Weights: Kidneys / Tissue Collection Weights: Liver / Tissue Collection Weights: Lungs / Tissue Collection Weights: Ovaries/uterus / Tissue Collection Weights: Small intestine / Tissue Collection Weights: Spleen / Tissue Collection Weights: Thymus / Tissue Collection Weights: Prostate / Tissue Collection Weights: Testes: individual animals
Procedure: Body weight and food consumption was measured daily for 14 days. On day 15, urine was collected on all surviving animals. The animals were euthanized and bled via cardiac puncture, and blood was collected for analysis. Tissues were collected, weighed, evaluated for gross abnormalities, and stored in 10% neutral-buffered formalin.
as §1

[2] = Anatabine dose 0.1 mg/kg, individual animals B1-B10 (M and F)
[3] = Anatabine dose 0.1 mg/kg, individual animals B1-B10 (M and F), 0.1 mg/kg
[4] = Anatabine dose 0.75 mg/kg, individual animals C1-C10 (M and F)
[5] = Anatabine dose 0.75 mg/kg, individual animals C1-C10 (M and F), 0.75 mg/kg
[6] = Group B, 0.1 mg/kg, females, 0.1 mg/kg
[7] = Group B, 0.1 mg/kg, males, 0.1 mg/kg
[8] = Group C, 0.75 mg/kg, females, 0.75 mg/kg
[9] = Group C, 0.75 mg/kg, males, 0.75 mg/kg
[10] = anatabine 0.1 mg/kg single i.v., male rats
[11] = anatabine 0.75 mg/kg single i.v., male rats

## C1=CCC(c2cccnc2)NC1 (racemic) [Anatabine, 1,2,3,6-tetrahydro-[2,3′]bipyridinyl]
Urinalysis, day 15; Anatabine dose 0.1 mg/kg, animal B9 (F), unit not given
  Urinalysis VOLUME: 0.5
Urinalysis, day 15; [2]
  Urinalysis CLARITY: HAZY
  Urinalysis COLOR: YELLOW
  Urinalysis GLUCOSE: NEGATIVE
  Urinalysis UROBILINOGEN: NORMAL
  Urinalysis VOLUME: <0.5 mL
Urinalysis, day 15; [3]
  Urinalysis BILIRUBIN: NEGATIVE
  Urinalysis BLOOD: TRACE; also recorded: NEGA-
  Urinalysis KETONES: NEGATIVE
  Urinalysis PROTEIN: TRACE; also recorded: NEGA-
  Urinalysis SPEC GRAVITY: 1.027 (2×) and 1.039 (2×) and 1.048 and 1.036 and 1.045 and 1.017
  Urinalysis pH: 8.5 and 7.5 (4×) and 7 (2×) and 8
Urinalysis, day 15; [4]
  Urinalysis CLARITY: HAZY
  Urinalysis COLOR: YELLOW
  Urinalysis GLUCOSE: NEGATIVE
  Urinalysis UROBILINOGEN: NORMAL
Urinalysis, day 15; [5]
  Urinalysis BILIRUBIN: NEGATIVE
  Urinalysis BLOOD: TRACE; also recorded: NEGA-
  Urinalysis KETONES: NEGATIVE
  Urinalysis PROTEIN: TRACE
  Urinalysis SPEC GRAVITY: 1.05 and 1.051 and 1.043 and 1.049 and 1.016 and 1.039 and 1.036 and 1.014
  Urinalysis VOLUME: <0.5 mL (8×) and <0.25 mL
  Urinalysis pH: 7 (3×) and 8 (3×) and 7.5 and 6
[1]; [6]
  Tissue Collection Weights: Brain: 1.91 g and 1.89 g (2×) and 1.75 g and 1.86 g
  Tissue Collection Weights: Heart: 1.29 g and 1.12 g and 0.95 g and 1.05 g and 1.25 g
  Tissue Collection Weights: Kidneys: 2.46 g and 2.02 g (2×) and 2.14 g and 2.25 g
  Tissue Collection Weights: Liver: 11.54 g and 10.09 g and 9.94 g and 12.94 g and 9.67 g
  Tissue Collection Weights: Lungs: 1.42 g and 1.39 g and 1.15 g and 1.52 g and 1.59 g
  Tissue Collection Weights: Ovaries/uterus: 0.96 g and 1.79 g and 0.84 g and 1.42 g and 0.70 g
  Tissue Collection Weights: Small intestine: 0.87 g and 0.71 g and 0.55 g and 0.49 g and 0.63 g
  Tissue Collection Weights: Spleen: 0.79 g and 0.62 g and 0.51 g and 0.67 g and 0.65 g
  Tissue Collection Weights: Thymus: 0.68 g and 0.59 g and 0.49 g and 0.71 g and 0.73 g
[1]; [7]
  Tissue Collection Weights: Brain: 2.35 g and 2.16 g and 2.24 g and 2.11 g and 1.88 g
  Tissue Collection Weights: Heart: 1.71 g and 1.59 g and 1.97 g and 1.60 g and 1.85 g
  Tissue Collection Weights: Kidneys: 3.55 g and 3.33 g and 3.70 g and 3.27 g and 3.99 g
  Tissue Collection Weights: Liver: 17.92 g and 15.45 g and 16.98 g and 16.32 g and 17.38 g
  Tissue Collection Weights: Lungs: 2.31 g and 1.77 g and 2.08 g and 1.91 g and 1.83 g
  Tissue Collection Weights: Prostate: 0.72 g and 0.49 g and 0.73 g and 0.53 g and 0.48 g
  Tissue Collection Weights: Small intestine: 0.61 g and 0.96 g and 0.88 g and 0.50 g and 0.35 g
  Tissue Collection Weights: Spleen: 0.91 g and 0.66 g and 0.82 g and 0.93 g and 0.76 g
  Tissue Collection Weights: Testes: 3.69 g and 3.64 g and 3.14 g and 3.35 g and 3.29 g
  Tissue Collection Weights: Thymus: 0.74 g (2×) and 0.76 g and 0.71 g and 0.81 g
[1]; [8]
  Tissue Collection Weights: Brain: 1.99 g and 1.93 g and 1.73 g and 2.06 g and 1.81 g
  Tissue Collection Weights: Heart: 1.09 g and 1.21 g and 1.23 g and 1.03 g and 0.99 g
  Tissue Collection Weights: Kidneys: 2.08 g and 2.20 g and 2.68 g and 2.36 g
  Tissue Collection Weights: Liver: 10.71 g and 8.65 g and 11.37 g and 10.19 g
  Tissue Collection Weights: Lungs: 1.46 g and 1.39 g and 1.62 g and 1.30 g and 1.49 g
  Tissue Collection Weights: Ovaries/uterus: 0.81 g and 1.50 g and 0.72 g and 1.23 g and 3.65 g
  Tissue Collection Weights: Small intestine: 0.72 g and 0.37 g and 0.85 g and 0.47 g and 1.34 g
  Tissue Collection Weights: Spleen: 0.70 g and 0.65 g (2×) and 0.51 g and 0.49 g
  Tissue Collection Weights: Thymus: 0.56 g and 0.53 g and 0.63 g and 0.52 g and 0.54 g
[1]; [9]
  Tissue Collection Weights: Brain: 2.01 g and 2.19 g and 2.12 g and 2.00 g and 2.02 g
  Tissue Collection Weights: Heart: 1.52 g and 1.38 g and 1.56 g and 1.39 g and 1.29 g
  Tissue Collection Weights: Kidneys: 3.45 g and 2.77 g and 3.49 g and 3.16 g and 2.89 g
  Tissue Collection Weights: Liver: 14.92 g and 13.91 g and 14.70 g and 14.01 g and 14.94 g
  Tissue Collection Weights: Lungs: 1.86 g and 1.97 g and 1.72 g and 1.95 g and 1.58 g
  Tissue Collection Weights: Prostate: 0.49 g (2×) and 0.65 g and 0.46 g and 0.45 g
  Tissue Collection Weights: Small intestine: 0.54 g and 1.41 g and 0.56 g and 0.41 g and 0.47 g
  Tissue Collection Weights: Spleen: 0.71 g and 0.63 g and 0.79 g and 0.93 g and 0.64 g
  Tissue Collection Weights: Testes: 3.19 g and 3.84 g and 3.03 g and 3.28 g and 2.70 g
  Tissue Collection Weights: Thymus: 1.02 g and 0.52 g and 0.67 g and 0.69 g and 0.47 g
[1]; [10]
  Organ Weight Brain, Mean: 2.15 g
  Organ Weight Heart, Mean: 1.74 g
  Organ Weight Kidneys, Mean: 3.57 g
  Organ Weight Liver, Mean: 16.81 g
  Organ Weight Lungs, Mean: 1.98 g
  Organ Weight Prostate, Mean: 0.59 g
  Organ Weight Small intestine, Mean: 0.66 g
  Organ Weight Spleen, Mean: 0.82 g
  Organ Weight Testes, Mean: 3.42 g
  Organ Weight Thymus, Mean: 0.75 g
[1]; [11]
  Organ Weight Brain, Mean: 2.07 g
  Organ Weight Heart, Mean: 1.43 g
  Organ Weight Kidneys, Mean: 3.15 g
  Organ Weight Liver, Mean: 14.50 g
